Tested on: HCT116 cells
Assay: MTT cell viability with or without zVAD-FMK
Type: cell-based, human
Conditions: Homo sapiens, HCT-116, 8a 20 μg/mL alone, 24 h
Source text: Caspases represent a key molecular group in the regulation of apoptosis. In caspases, there is an upstream and downstream relationship between the initiator of apoptosis and executioner. Caspase 3 is one of the key executers of apoptosis, as it is either partially or totally responsible for the proteolytic cleavage of many key proteins. For example, when caspase 9 is activated, it activates caspase 3, which ultimately triggers cell apoptosis. After detecting the expression of the corresponding Bcl-2 family proteins after 8a treatment by western blotting, we went on to detect the expression levels of PARP, caspase 9, cleaved caspase 9, caspase 3, and cleaved caspase 3 proteins. […] After 24 h of treatment with zVAD-FMK, cell viability is 93%.
Figure 7 Effect of 8a on apoptosis-related protein expression. […] PARP, caspase 3, cleaved caspase 3, caspase 9, cleaved caspase 9, Bcl-2, phosphorylated Bcl-2, Bcl-XL, phosphorylated Bcl-xL and Bax were detected by western blot analysis; β-actin was used as a loading control in each lane. Representative data of three independent experiments are shown; (C) and (D) Grayscale analysis of the relative expression of apoptosis-related proteins detected by Western blotting. […] (E) Cells were exposed to 8a (20 μg/mL) and/or zVAD-FMK ([…]) for 24 h, and cell viability was measured by MTT assay. […]

With `CC(C)CC(NC(=O)c1ccc2c(c1[N+](=O)[O-])C(=O)c1ccccc1C2=O)C(=O)O` (stereo not shown) [Compound 8a, N-[(9,10-dihydro-1-nitro-9,10-dioxo-2-anthracenyl)carbonyl-leucine]] as the compound, how does the viability at 20 µg/mL read?
Its viability at 20 µg/mL is 38%.

Reference: paper PMC7180728, “Novel Anthraquinone Compounds Inhibit Colon Cancer Cell Proliferation via the Reactive Oxygen Species/JNK Pathway” (Molecules, 2020)
